Laboratory results as given in US8618355B2, “Aromatic prenyltransferase from hop” (priority 2008, dated 2013).
Like-named read-outs stand apart in the source and are kept apart here.

Tests used:
HIPT1 [1] = biological target: T1, HIPT1 (Humulus lupulus, UniProt E5RP65, INS53SN/R152W); format: biochemical; parameters: were designed to amplify the open reading frame (ORF) of the prenlyltransferase gene; N-terminal 6xHis and TEV site from the pFastBacHT C vector (own knowledge of the vector); made in house; host or cells: Spodoptera frugiperda (Sf9) insect cells, baculovirus (Bac-to-Bac); microsomal preparation, not purified; conditions: mean ± SD (n = 3), read-out: Km Substrate
T1 sequence (E5RP65 other isoform, or with tags, fused parts or gaps INS53SN/R152W): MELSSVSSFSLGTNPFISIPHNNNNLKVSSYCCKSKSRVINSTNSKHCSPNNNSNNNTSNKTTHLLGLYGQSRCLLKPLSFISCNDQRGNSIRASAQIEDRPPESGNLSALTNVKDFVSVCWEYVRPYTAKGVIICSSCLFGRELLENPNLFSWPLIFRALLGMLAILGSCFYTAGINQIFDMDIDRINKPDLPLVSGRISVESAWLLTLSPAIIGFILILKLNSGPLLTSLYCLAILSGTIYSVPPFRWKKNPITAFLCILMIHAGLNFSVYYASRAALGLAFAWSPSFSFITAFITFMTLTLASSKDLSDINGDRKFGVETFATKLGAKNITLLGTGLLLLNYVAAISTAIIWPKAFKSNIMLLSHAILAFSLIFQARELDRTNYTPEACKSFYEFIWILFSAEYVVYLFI
Protocol: (§1) HIPT1 enzyme was assayed with phlorisobutyryphenone (PIBP), phlorisovalerophenone (PIVP) and chalconaringenin. Microsomal preparations from Example 2 were used in a 100 μl enzyme assay containing 100 mM Tris-HCl pH 7.0, 10 mM MgCl2, 0.5 mM aromatic substrate (PIBP, PIVP or chalconaringenin), 0.5 mM dimethylallyldiphosphate (DMAPP) and 20 μl of microsomes from insect cells expressing recombinant HIPT1. The assays were incubated at 30° C. for 120 min, the reactions stopped by addition of 5 μl 6N HCl, the reaction products extracted with 200 μl ethyl acetate and dried. The dried products were resuspended in 100 μl of methanol and analyzed by reversed-phase HPLC (solvent A: 0.1% TFA in water, solvent B: acetonitrile; 0-10 min, 40% B to 50% B; 10-20 min, 50% B to 100% B; flow rate 1 ml/min).

HIPT1 [2] = biological target: T1, HIPT1; assay: HIPT1 enzyme assay with aromatic substrate and DMAPP, products analysed by HPLC and LC-MS; format: biochemical; parameters: were designed to amplify the open reading frame (ORF) of the prenlyltransferase gene; N-terminal 6xHis and TEV site from the pFastBacHT C vector (own knowledge of the vector); made in house; host or cells: Spodoptera frugiperda (Sf9) insect cells, baculovirus (Bac-to-Bac); microsomal preparation, not purified; conditions: 0.5 mM aromatic substrate, 0.5 mM DMAPP, 30° C., 120 min, pH 7.0
Protocol: as §1
Abbreviations: PIBP is phlorisobutyrophenone, PIVP is phlorisovalerophenone, DMAPP is dimethylallyl diphosphate.

HIPT1 [3] = biological target: T1, HIPT1; assay: Substrate specificity of HIPT1 prenyltransferase activity (14C-DMAPP, radioHPLC); format: biochemical; parameters: were designed to amplify the open reading frame (ORF) of the prenlyltransferase gene; N-terminal 6xHis and TEV site from the pFastBacHT C vector (own knowledge of the vector); made in house; host or cells: Spodoptera frugiperda (Sf9) insect cells, baculovirus (Bac-to-Bac); microsomal preparation, not purified; conditions: aromatic acceptor substrates
Protocol: Referring to FIG. 9A, prenyltransferase activity of HIPT1 on various substrates was measured using ^14C-DMAPP and thirteen aromatic acceptor substrates. Prenylated products were detected and quantified using radioHPLC. Error bars are SD (n=3). Referring to FIG. 9B, prenyltransferase activity of HIPT1 was measured with different prenyl diphosphate donors and the three major aromatic acceptor substrates, PIBP, PIVP and chalconaringenin. Prenylated products were quantified using HPLC with UV detection. Abbreviations: PIBP, phlorisobutyrophenone, PIVP, phlorisovalerophenone; DMAPP, dimethylallyl diphosphate; IPP, isopentenyl diphosphate; GPP, geranyl diphosphate; GGPP, geranylgeranyl diphosphate. Error bars are SD (n=3).

HIPT1 [4] = biological target: T1, HIPT1; conditions: presence of EDTA

Row | SMILES | Km (HIPT1 [1]; acceptor substrate) [µM] | Prenylation by HIPT1 (product formed) (HIPT1 [2]) | Acceptance as substrate of HIPT1 (HIPT1 [3]) | further results
1 | CC(C)CC(=O)c1c(O)cc(O)cc1O [PIVP, phlorisovalerophenone] | 4.95 ± 0.25 | forming prenyl PIVP | – | –
2 | O=C(/C=C/c1ccc(O)cc1)c1ccc(O)cc1O [isoliquiritigenin] | – | – | can accept | –
3 | O=C(O)CN(CCN(CC(=O)O)CC(=O)O)CC(=O)O [EDTA] | – | – | – | Effect on prenyltransferase activity of HIPT1 (HIPT1 [4]): completely inhibited
4 | CC(C)=CCc1c(O)cc(O)c(C(=O)C(C)C)c1O [prenyl-PIBP] | – | – | does prenylate prenyl-PIBP to form diprenyl-PIBP | –
5 | CC(C)=CCOP(=O)(O)OP(=O)(O)O [DMAPP, dimethylallyldiphosphate] | – | – | – | Km (HIPT1 [1]; prenyl donor, determined with PIVP as acceptor substrate): 16.8 ± 2.35 µM
6 | Cc1cc(O)cc(O)c1 [orcinol] | – | – | can accept | –
7 | O=C(/C=C/c1ccc(O)cc1)c1c(O)cc(O)cc1O [Chalconaringenin, chalconaringenin] | 196 ± 24.8 | forming desmethylxanthohumol | – | –
8 | Oc1ccc(C=Cc2cc(O)cc(O)c2)cc1 [resveratrol] | – | – | can accept | –
9 | CC(C)C(=O)c1c(O)cc(O)cc1O [PIBP, phlorisobutyryphenone] | 10.2 ± 0.55 | forming prenyl PIBP | – | –
